Source: publication PMC4018225 (Biopharmaceutics & drug disposition, 2013)
Where two headings read alike, the source gives them in different places. Marks after values point to notes of the source that are not given here.

Assays:
[1] = HIV infected subjects compared to healthy volunteers; cited from earlier work
[2] = nonHIV tx, cited from earlier work
[3] = Reference pharmacokinetics of CsA and TAC in nonHIV transplant patients; type: in vivo, human; details: nonHIV tx; average for both PI time periods
[4] = type: in vivo, human; details: for AUC (weight and dose normalized) / TAC V/F: median [IQR]; for CL/F: human, whole blood, oral
[5] = HIV-1 infected volunteers; concomitant use of EFV or NVP; cited from earlier work
[6] = co-medication EFV, wk 28, 52, 104
[7] = co-medication NVP, wk 28, 52, 104

## Cc1ncc2n1-c1ccc(Cl)cc1C(c1ccccc1F)=NC2 [midazolam]
[1]
  decrease in clearance: ~ 50%

## C=CC[C@@H]1/C=C(\C)C[C@H](C)C[C@H](OC)[C@H]2O[C@@](O)(C(=O)C(=O)N3CCCC[C@H]3C(=O)O[C@H](/C(C)=C/[C@@H]3CC[C@@H](O)[C@H](OC)C3)[C@H](C)[C@@H](O)CC1=O)[C@H](C)C[C@@H]2OC [TAC, tacrolimus]
[2]
  TAC CL/F: 5.83 mL/min/kg
  TAC CL/V: 0.058 h⁻¹
  TAC V/F: 6 L/kg
[2]; wks 2–12
  AUC (weight and dose normalized): 2000 to 5000 ng·h/mL/mg/kg
[2]; wks 28–104
  AUC (weight and dose normalized): 2000 to 5000 ng·h/mL/mg/kg
[3]
  TAC CL/F Ratio to PI: (10.1) ^*
  TAC CL/V Ratio to PI: (1.6) ^*
  TAC V/F Ratio to PI: (6.2) ^*
[4]; +EFV, wks 2–12
  AUC (weight and dose normalized): 2170 [936–3261] ng*hr/mL/mg/kg
[4]; +EFV, wks 28–104
  AUC (weight and dose normalized): 1911 [1423–3071] ng*hr/mL/mg/kg
[4]; +NVP, wks 2–12
  AUC (weight and dose normalized): 3644 [3115–5157] ng*hr/mL/mg/kg
[4]; +NVP, wks 28–104
  AUC (weight and dose normalized): 4220 [2703–6229] ng*hr/mL/mg/kg
[4]; +PI, wks 2–12
  AUC (weight and dose normalized): 24996 [18205–41601] ng*hr/mL/mg/kg
[4]; +PI, wks 28–104
  AUC (weight and dose normalized): 34653 [17208–42250] ng*hr/mL/mg/kg
[4]; [6]
  TAC CL/F Ratio to PI: 18.1
  TAC CL/V: 0.068 h⁻¹
  TAC CL/V Ratio to PI: 2.33
  TAC V/F Ratio to PI: 7.78
  TAC V/F: 7.70 [6.22–10.70] L/kg
[4]; co-medication EFV, wks 2–12
  TAC CL/F Ratio to PI: 11.5
  TAC CL/V: 0.074 h⁻¹
  TAC CL/V Ratio to PI: 1.72
  TAC V/F Ratio to PI: 6.66
  TAC V/F: 6.26 [5.42–10.91] L/kg
[4]; [7]
  TAC CL/F Ratio to PI: 8.72
  TAC CL/V: 0.031 h⁻¹
  TAC CL/V Ratio to PI: 1.07
  TAC V/F Ratio to PI: 8.17
  TAC V/F: 8.09 [3.46–15.14] L/kg
[4]; co-medication NVP, wks 2–12
  TAC CL/F Ratio to PI: 6.85
  TAC CL/V: 0.056 h⁻¹
  TAC CL/V Ratio to PI: 1.31
  TAC V/F Ratio to PI: 5.20
  TAC V/F: 4.89 [2.74–6.16] L/kg
[4]; co-medication PI, wk 28, 52
  TAC CL/F Ratio to PI: 1
  TAC CL/V: 0.029 h⁻¹
  TAC CL/V Ratio to PI: 1
  TAC V/F Ratio to PI: 1
  TAC V/F: 0.99 [0.31–1.19] L/kg
[4]; co-medication PI, wks 2–12
  TAC CL/F Ratio to PI: 1
  TAC CL/V: 0.043 h⁻¹
  TAC CL/V Ratio to PI: 1
  TAC V/F Ratio to PI: 1
  TAC V/F: 0.94 [0.64–1.29] L/kg
[4]; 0.003 mg/kg
  CL/F: 0.483 mL/min/kg
[4]; 0.007 mg/kg
  CL/F: 0.667 mL/min/kg
[4]; 0.046 mg/kg
  CL/F: 8.77 mL/min/kg
[4]; 0.058 mg/kg
  CL/F: 7.68 mL/min/kg
[4]; in vivo
  TAC apparent volume of distribution ratio, PI compared to EFV: 0.15
  TAC apparent volume of distribution ratio, PI compared to NVP: 0.19
  increase in drug exposure on concomitant administration with PIs: 2–50 fold
  increase in exposure (AUC/dose) in the presence of PIs relative to NNRTIs: more than 10 fold
[4]; weeks 2–12
  TAC CL/F ratio, PI compared to EFV: 0.09
  TAC CL/F ratio, PI compared to NVP: 0.15

## Cc1cccc(C)c1OCC(=O)N[C@@H](Cc1ccccc1)[C@@H](O)C[C@H](Cc1ccccc1)NC(=O)[C@H](C(C)C)N1CCCNC1=O [lopinavir]
[5]
  increase in apparent oral clearance: 39%
